“Also recorded” adds a separate entry of the source.

One may read the IC50 as the concentration at which inhibition is half-maximal.

What all share (type): cell-based, human
One experiment relates to EUFA423F cells. The experiment is described as follows: CellTiter-Glo cell viability, BRCA2-mutated cells. The conditions noted are these: for toxicity towards EUFA423 cells: BRCA2-mutated cells, yes/no; for toxicity / selective toxicity towards BRCA2-mutated cells in cell viability assays: EUFA423F versus EUFA423F HA. The text has this: (§1) Cell lines: EUFA423F cells that are derived from a Fanconi Anemia patient with complementation group D1 and have biallelic mutations (7691 insAT and 9900 insA) in BRCA2 that result in two different truncated forms of BRCA2 (Howlett N G, et al., Science (New York, NY). 2002; 297(5581):606-9) and its counterpart complemented with expression vector for full-length BRCA2 (EUFA HA) were a generous gift from Dr. Simon Powell, Molecular Biology Program, Radiation Oncology, Sloan-Kettering Cancer Center, New York, NY).
Cell proliferation assay: Selective toxicity of the compounds towards human BRCA2 deficient cells was tested in EUFA423F and its complement EUFA423F HA using CellTiter-Glo® Luminescent Cell Viability Assay (Promega, Madison, WI). The cell lines were maintained in DMEM (Gibco/ThermoFisher Scientific, Waltham, MA) supplemented with 10% FBS and 10 mM HEPES (Gibco/ThermoFisher Scientific, Waltham, MA). EUFA423F HA cells were routinely supplemented with G418 in order to maintain the BRCA2 expression plasmid. Both cell lines were seeded in sterile tissue culture treated, white opaque 384-well plates (Perkin Elmer Inc., Waltham, MA) 3000 cells/well for EUFA423F HA and 2500 cells/well for EUFA423F) and allowed to adhere for 24 hours. Compounds dissolved in DMSO were added in the concentration range of 0-100 μM. Controls were treated with equivalent DMSO volumes. The cells were treated with compounds for 72 hours (to ensure that all cells experienced at least two S-phases). Post treatment, the cells were washed, treated with the CellTiter-Glo® reagent was added and the plate was analyzed as using a Gen5 (ver2.1) luminosity plate reader. The luminescence that reports on ATP generation by the surviving cells was normalized for the DMSO treated control as 100%. The normalized luminescence (average±standard deviation for at least three independent measurements obtained with different cell passages) was plotted in GraphPad Prism as a function of compound concentration. Clonogenic Survival: EUFA423F and EUFA423F HA cells were seeded in a 96 well plate. Compounds dissolved in DMSO were added to final concentrations of 0, 50, and 100 μM for the compound of Example 8 and the compound of Example 1, and 0, 5, and 10 μM for the compounds of Examples 2-7. The cells were treated with compounds for 72 hours. Post treatment, cell cultures were harvested by collecting all non-adherent cells in the well, trypsinization of all adherent cells, combining, pelleting and then resuspending in fresh media. Cultures treated with DMSO only were subsequently counted using a hemocytometer and plated at a density of 2000, 200 and 20 cells per well in 6-well culture plates, equal volumes of cultures were plated each inhibitor concentration. Each treatment and cell density conditions for both cell lines were plated in triplicate. After expanding the colonies for a period of 8 days, cultures were fixed with a solution of 70% ethanol and crystal violet for clonogenic survival analysis. Pictures of individual wells were taken using GelCount (Version 1.3.0.4) by Oxford Optronix (Abingdon UK). A colony had to contain at least 50 cells to be counted. The number of surviving colonies following treatment are presented as a percentage of number of colonies in the experiment where the cells were treated with DMSO only.

In experiment [1] the test system is EUFA423F and EUFA423F HA cells. The experiment is described as follows: Clonogenic survival assay. The note with it: cells pre-treated 72 hours, colonies after 8 days.
Excerpt: as §1
Cell proliferation assay: Selective toxicity of the compounds towards human BRCA2 deficient cells was tested in EUFA423F and its complement EUFA423F HA using CellTiter-Glo® Luminescent Cell Viability Assay (Promega, Madison, WI). […] Post treatment, the cells were washed, treated with the CellTiter-Glo® reagent was added and the plate was analyzed as using a Gen5 (ver2.1) luminosity plate reader. The luminescence that reports on ATP generation by the surviving cells was normalized for the DMSO treated control as 100%. The normalized luminescence (average±standard deviation for at least three independent measurements obtained with different cell passages) was plotted in GraphPad Prism as a function of compound concentration. […] A colony had to contain at least 50 cells to be counted. […]

For the next experiment, the system named is EUFA423F HA cells. As to the kind of experiment: CellTiter-Glo cell viability, BRCA2-complemented cells. The note with it: high concentrations (Z56: 250 μM). A general note: ATP-based viability assays read luminescence as a measure of living cells.

With `O=C(Cn1cccc([N+](=O)[O-])c1=O)c1c[nH]c2ccccc12` [Example 1], in the experiment on EUFA423F cells, the “toxicity towards EUFA423 cells” value was “yes”. Also, the “toxicity / selective toxicity towards BRCA2-mutated cells in cell viability assays” value in the experiment with EUFA423F cells (CellTiter-Glo, 72 hours, listed as Z99) is listed as “selectively toxic; also recorded: shows toxicity towards BRCA2-mutated cells”. For the same compound, in experiment [1], the “clonogenic survival: confirmation of effect on cell viability” value is “confirmed”. Further, in the experiment on EUFA423F HA cells (listed as Z99), the “effect on viability/growth of BRCA2-complemented HA cells” value is “affected the viability; also recorded: some toxicity towards BRCA2-complemented cells”.
As for `COc1ccccc1NS(=O)(=O)c1cc(C(=O)O)ccc1C` [Example 8], in the experiment with EUFA423F cells, the “toxicity towards EUFA423 cells” value is listed as “yes”. In addition, the “toxicity / selective toxicity towards BRCA2-mutated cells in cell viability assays” value with EUFA423F cells (CellTiter-Glo, 72 hours, listed as Z56) was “toxicity only towards BRCA2 mutant cells; also recorded: selectively toxic to BRCA2-mutated cells”. In addition, the IC50 in the experiment on EUFA423F cells (Homo sapiens, CellTiter-Glo, 72 hours, read-out: IC50 value for the EUFA423F viability experiments) was 32 ± 12.1 µM. Further, in experiment [1], the “clonogenic survival: confirmation of effect on cell viability” value is recorded as “confirmed”. In the experiment with EUFA423F HA cells, the “effect on viability/growth of BRCA2-complemented HA cells” value is “unaffected”.

The values above are taken from US20260193227A1, “THERAPEUTIC COMPOUNDS AND METHODS” (UNIVERSITY OF IOWA RESEARCH FOUNDATION, priority 2022, published 2026).
